Assay results reported in article PMC7027018 (BMC Chemistry, 2020).

How the values were obtained:
hMAO-B = target: T1, hMAO-B (Homo sapiens, UniProt P27338); experiment: hMAO-B inhibitory activity, Amplex Red continuous fluorometric assay; type: biochemical; conditions: for Selectivity index: IC50 (MAO-A)/IC50 (MAO-B); for IC50: recombinant hMAO-B, p-tyramine substrate, Amplex Red, mean SEM
T1 construct: purchased Sigma-Aldrich; host or cells: insect cells (BTI-TN-5B14), recombinant baculovirus
T1 sequence (P27338 1-520): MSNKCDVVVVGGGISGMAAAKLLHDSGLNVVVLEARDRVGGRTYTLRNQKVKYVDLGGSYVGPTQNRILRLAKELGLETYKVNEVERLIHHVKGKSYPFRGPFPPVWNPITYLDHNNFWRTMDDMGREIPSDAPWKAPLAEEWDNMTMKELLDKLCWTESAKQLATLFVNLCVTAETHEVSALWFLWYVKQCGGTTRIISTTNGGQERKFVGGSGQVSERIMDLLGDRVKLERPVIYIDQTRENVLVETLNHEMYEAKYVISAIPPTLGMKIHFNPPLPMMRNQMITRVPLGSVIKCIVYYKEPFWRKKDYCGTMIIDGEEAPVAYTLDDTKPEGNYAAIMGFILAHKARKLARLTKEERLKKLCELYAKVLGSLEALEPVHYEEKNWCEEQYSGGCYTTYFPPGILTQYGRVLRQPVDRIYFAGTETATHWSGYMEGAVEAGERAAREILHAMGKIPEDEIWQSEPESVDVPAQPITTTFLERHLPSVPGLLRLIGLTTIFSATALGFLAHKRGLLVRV
Method: (§1) The synthesized derivatives were screened for the hMAO-A and hMAO-B inhibitory activities by using an extremely sensitive continuous fluorometric assay containing Amplex Red (10-acetyl-3, 7-dihydroxyphenoxazine) reagent. The enzymatic H2O2 was measured with and without extracts or standards.
(§2) Unless otherwise noted, the analytical grade chemicals required for synthesis and antioxidant activity procured from Sigma Aldrich, Merck, Hi-media Laboratories. The analytical assessment of the synthesized derivatives for hMAO inhibition was measured by their effects on the generation of hydrogen peroxide (H2O2) by p-tyramine (a general substrate for both MAO isoforms), utilizing the Amplex Red MAO assay kit (Sigma USA) and microsomal MAO enzymes extracted by insect cells (BTI-TN-5B14) expressed on recombinant baculovirus containing cDNA probes for MAO isoforms (Sigma-Aldrich USA) were used as source for the two microsomal MAO isoforms. The progress of the reaction was cheeked through thin layer chromatography TLC executed on 0.25 mm pre-coated plates with silica gel procured from Merck, and the spots were envisaged in iodine chamber and UV cabinet, in mobile media TLC-hexane:toluene:ethyl acetate (1:1:1). Melting points were recorded on Sonar melting point apparatus in open capillary tubes. The nuclear magnetic resonance (NMR) spectra 1H NMR and ^13C NMR spectra were determined in DMSO and deuterated CDCl3 respectively on a spectrometer (Model: Bruker Avance II 400 NMR). Coupling constants J are in hertz (Hz) (Additional file 1). Spectral data for infrared (IR) was confirmed on Perkin Elmer FTIR spectrophotometer by using KBr pellets technique.
(§3) Human MAO-A and -B recombinant enzymes (Sigma-Aldrich) 5 mg ml^−1 were pre-aliquoted and placed at − 70 °C. The interactions of the titled compounds with hMAO isoforms were evaluated through a fluorimetric method based on the H2O2 formation rendered by MAO isoforms was identified by utilizing the non-fluorescent, extremely susceptible and stable probe Amplex®-Red reagent (10-acetyl-3,7-dihydroxyphenoxazine), which reacts with H2O2 in the existence of horseradish peroxidase to generate resorufin which is a fluorescent component. […] By the incubation time, the reaction was initiated via the addition of 200 μM Amplex Red reagent, 1 mM p-tyramine (general substrate for both MAO isoforms) and 1 U ml^−1 horseradish peroxidase (HRP). […] The calculation of specific fluorescence emission (used to obtain the final results) was carried out by subtraction of background action that was identified by the cuvettes comprising all reagents except the MAO isoforms, which were changed by a sodium phosphate buffer solution. The preparation of stock solutions and all reagents was done newly each day in deionized water and kept at − 20 °C. Data were processed in Microsoft Excel, to calculate IC50 values.
(§4) The enzymatic kinetic factors maximum reaction rate (Vmax) and Michaelis–Menten constant (Km) were computed by GraphPad Prism Software 6.02 (San Diego, CA, USA). The IC50 values were determined by nonlinear regression best fit model of normalized response with variable slope. Lineweaver–Burk plot was obtained from Michaelis–Menten data. The Michaelis–Menten constant (Km) is the concentration of […]. Relative selectivity (RS) folds were defined by the ratio of hMAO-A IC50 to hMAO-B IC50. The inhibition mechanism was identified by the double reciprocal plot (Lineweaver–Burk curves) by plotting the inverse of the substrate concentration (1/S) as a function against the inverse of initial velocity (1/V).

hMAO-A [1] = target: T2, hMAO-A (Homo sapiens, UniProt P21397); experiment: hMAO-A inhibitory activity, Amplex Red continuous fluorometric assay; type: biochemical; conditions: recombinant hMAO-A, p-tyramine substrate, mean SEM
T2 construct: purchased Sigma-Aldrich; host or cells: insect cells (BTI-TN-5B14), recombinant baculovirus
T2 sequence (P21397 1-527): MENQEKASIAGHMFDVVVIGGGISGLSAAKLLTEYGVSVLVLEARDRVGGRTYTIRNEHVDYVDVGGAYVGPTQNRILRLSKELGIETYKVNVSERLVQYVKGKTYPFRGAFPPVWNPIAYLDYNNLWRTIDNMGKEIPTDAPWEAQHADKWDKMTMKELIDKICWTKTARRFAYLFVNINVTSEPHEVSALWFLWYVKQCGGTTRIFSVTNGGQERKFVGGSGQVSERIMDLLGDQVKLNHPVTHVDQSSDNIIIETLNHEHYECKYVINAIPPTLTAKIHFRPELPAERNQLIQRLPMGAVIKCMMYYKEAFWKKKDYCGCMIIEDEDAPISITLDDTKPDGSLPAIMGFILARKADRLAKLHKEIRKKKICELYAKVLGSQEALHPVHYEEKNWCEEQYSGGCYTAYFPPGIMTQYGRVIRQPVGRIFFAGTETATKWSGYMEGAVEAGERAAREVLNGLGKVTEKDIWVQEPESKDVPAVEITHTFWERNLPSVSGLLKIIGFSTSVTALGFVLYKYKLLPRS
Method: as §1, §2, §3, §4

[2] = DPPH radicals scavenging activity; conditions: absorbance at 517 nm, 30 min at 37 °C; mean ± SEM, n = 3
Excerpt: Besides their inhibitory action on hMAO the antioxidant potential of synthesized compounds was investigated using 1,1-Diphenyl-2-picrylhydrazyl (DPPH) assay. DPPH was utilized as a stable free radical because free radicals simulate reactive nitrogen and oxygen species distressing neurological structure.
The DPPH method is one of the most proficient techniques to assess the radical-scavenging action by a chain-breaking mechanism. […] DPPH is stable free radical on room temperature, however on acceptance of a hydrogen/electron radical it turns into a stable diamagnetic molecule. The scavenging activity of DPPH radical is assessed by the reduction in its optical density at 5l7 nm, rendered by antioxidants. This phenomenal feature of DPPH is due to the reaction among antioxidant compounds and radicals, leads to the scavenging of the free radical via donated hydrogen. It manifested visually as the color bleaches from purple to yellow. Therefore, DPPH is generally utilized as a substrate to estimate the ant oxidative potential. Different concentrations of around […] (25, 50, 75, and 100) µg ml^−1 of the titled derivatives were suspended in methanol and mixed with 5 ml of a 0.004% methanol solution of DPPH. Subsequently the all dilutions were subjected to incubation for 30 min at 37 °C temperature; finally, at 517 nm the absorbance was measured against a blank. Ascorbic acid was utilized as a reference while and all the experiments were performed in triplicate. […] DPPH free radical scavenging of compounds was calculated as scavenging activity for DPPH (%) = [(Ac − At)/Ac] × 100 Where Ac is the absorbance of the control reaction At is the absorbance of the test compound. The absorbance was measured with UV/Vis Epoch ELISA reader at 517 nm, and antioxidant activity was measured as a decrease in absorbance of DPPH·.

[3] = Hydrogen peroxide scavenging (H2O2) assay; conditions: absorption at 230 nm, 10 min incubation, phosphate buffer pH 7.4; mean ± SEM, n = 3
Method: H2O2 is quickly decomposed into oxygen and water and this could generate hydroxyl radicals (OH) that may commence DNA damage in the body and lipid peroxidation. The hydrogen peroxide inhibitory activity of newly synthesized compounds was assessed by the technique illustrated by Nakano and coworkers with some modifications. In phosphate buffer (40 mM pH 7.4) the solution of hydrogen peroxide (40 mM) was prepared and different concentrations of titled compounds (05–80 μg ml^−1) were added to H2O2 solution (2 ml). The concentration of hydrogen peroxide is determined by absorption at 230 nm using a spectrophotometer after 10 min of incubation. Blank reading was noted of phosphate buffer without H2O2. The percentage of hydrogen peroxide inhibition was anticipated by the formula [(Ab − At)/[…]] × 100, where Ab is the absorbance of the control and At is the absorbance of compounds/standard taken as L-ascorbic acid (05–80 μg ml^−1). UV/Vis Epoch ELISA reader was used to measure as a decrease in absorbance in the 96 wells (Table 5).

hMAO-A [4] = target: T2, hMAO-A; experiment: Kinetic study (Lineweaver-Burk) of hMAO-A inhibition; type: biochemical; conditions: Lineweaver-Burk plots, p-tyramine substrate
Excerpt: The kinetic study by the Lineweaver–Burk plots, carried out to explicates the type of inhibition by compounds 7, 15 shown their significant inhibitory potential towards hMAO-A and hMAO-B, respectively. Reaction mixtures composing of five diverse concentrations of p-tyramine was used as a common substrate in the presence or absence of compounds.
as §4

| SMILES | Selectivity index (hMAO-B) | IC50 (hMAO-B) | IC50 (hMAO-A [1]) | IC50 [2] | IC50 [3] | type of hMAO-A inhibition (hMAO-A [4]) |
| --- | --- | --- | --- | --- | --- | --- |
| O=C(/C=C/C=C/c1ccc2c(c1)OCO2)Nc1ccc(Br)cc1 [Compound 5] | 4.241 | 14.19 ± 0.007 µM | 60.19 ± 0.087 µM | 5.553 ± 0.007 µM | 8.279 ± 0.017 µM | – |
| O=C(/C=C/C=C/c1ccc2c(c1)OCO2)Nc1cccc2ccccc12 [Compound 7] | 0.294 | 52.2 ± 0.006 µM | 15.38 ± 0.071 µM | 8.815 ± 0.019 µM | 9.495 ± 0.045 µM | competitive |
| O=C(/C=C/C=C/c1ccc2c(c1)OCO2)N1CCOCC1 [Compound 9] | – | 71.01 ± 0.005 µM | 22.19 ± 0.07 µM | 12.35 ± 0.021 µM | 13.98 ± 0.01 µM | – |
| CC1CCC(C(C)C)C(OC(=O)/C=C/C=C/c2ccc3c(c2)OCO3)C1 (stereo not drawn) [Compound 11] | 1.637 | 20.59 ± 0.006 µM | 33.72 ± 0.071 µM | 14.15 ± 0.011 µM | 17.57 ± 0.091 µM | – |
| O=C(/C=C/C=C/c1ccc2c(c1)OCO2)Oc1ccc2ccc(=O)oc2c1 [Compound 13] | 0.371 | 65.99 ± 0.002 µM | 24.53 ± 0.002 µM | 10.7 ± 0.035 µM | 11.35 ± 0.004 µM | – |
| Cc1ccc(C(C)C)cc1OC(=O)/C=C/C=C/c1ccc2c(c1)OCO2 [Compound 17a] | 1.512 | 21.37 ± 0.007 µM | 32.33 ± 0.043 µM | 17.15 ± 0.026 µM | 23.76 ± 0.021 µM | – |
| COc1cc(C=O)ccc1OC(=O)/C=C/C=C/c1ccc2c(c1)OCO2 [Compound 17b] | 1.675 | 17.9 ± 0.038 µM | 30 ± 0.005 µM | 8.281 ± 0.001 µM | 10.09 ± 0.013 µM | – |
| C=CCc1ccc(OC(=O)/C=C/C=C/c2ccc3c(c2)OCO3)c(OC)c1 [Compound 17c] | 0.609 | 26.44 ± 0.063 µM | 16.11 ± 0.091 µM | 16.52 ± 0.012 µM | 15.71 ± 0.014 µM | – |
| O=C(/C=C/C=C/c1ccc2c(c1)OCO2)N1CCCCC1 [Piperine, reference compound] | 1.081 | 17.57 ± 0.037 µM | 19.01 ± 0.031 µM | 9.814 ± 0.053 µM | 11.33 ± 0.016 µM | – |
